# Test results published in patent publication US7319086B1, “Method of prophylaxis and treatment and agents useful for same” (priority 1999, dated 2008).
# Columns and labels:
# Set-up in all cases: species or system P. gingivalis
# [1] = biological target: binding of rHA2 or the gingipains (RgpA, Kgp) to hemin (Porphyromonas gingivalis, UniProt Q51816, A1188S/A1219P/Q1165E); experiment: solution-phase competition assay, hemin-coated wells; details: read-out: IC50, inhibition of binding to hemin
# Protocol: (§1) Data are representative of two separate experiments. The absence of contaminating protein in a 90 μg protoporphyrin IX preparation was verified by SDS-PAGE and by Coomassie dye binding.
# (§2) The IC50s for ligand binding in solution phase competition assays were determined. […] Hemoglobin was used as it was considered to represent the dominant form of porphyrin presentation in the pathological environment of chronic periodontitis.
# [2] = biological target: binding of rHA2 or the gingipains (RgpA, Kgp) to hemoglobin (Porphyromonas gingivalis, UniProt Q51816, A1188S/A1219P/Q1165E); experiment: solution-phase competition assay, hemoglobin-coated wells (rHA2 or gingipains); details: preincubated 1 hr, read-out: IC50, inhibition of binding to hemoglobin
# Protocol: as §1, §2
# rHA2 = experiment: directed porphyrin binding: porphyrins linked by carbodiimide to ethylene diamine-coated wells; details: propionic acid groups linked to fixed amines, compared with non-derivatized porphyrin; 125 ng/ml rHA2
# Protocol: Microtiter wells were coated with 100 mM ethylene diamine (pH 4.7) then incubated with 90 μg/ml hemin, protoporphyrin IX, or hematoporphyrin overnight in 50% dimethyl formamide in the presence (+) or absence (−) of 10 mM carbodiimide. Wells were washed 4 times with water then the amount of porphyrin bound to the wells was determined by absorbance at 414 nm (striped bars). […] Error bars represent standard deviation of absorbance measurements. Diagrams of chemical structures for hemin, protoporphyrin IX, and hematoporphyrin are presented adjacent to corresponding data.
# The inventors reasoned, therefore, that blocking access to the acidic region of protoporphyrin molecules would have an effect on rHA2-binding and allow more specific characterization of binding between the HA2 domain and the porphyrin ring. Modifying the ligand binding assay system used above, surfaces were first coated with ethylene diamine to provide fixed, free, primary amines for carbodiimide linkage of carboxylic acid groups.
Compound,IC50 [1],IC50 [2],rHA2-binding to carbodiimide-treated porphyrin (rHA2)
C=CC1=C(C)c2cc3[nH]c(cc4nc(cc5[nH]c(cc1n2)c(C)c5CCC(=O)O)C(CCC(=O)O)=C4C)c(C)c3C=C [protoporphyrin IX],~2.5 µM,10 ± 2 µM,–
hemin,–,–,almost eliminated
